{
  "source": "patent US20240108738A1",
  "about": "“BICYCLIC PEPTIDE LIGANDS SPECIFIC FOR NK CELLS” (Bicycle Tx Limited, priority 2021, published 2024)",
  "key": {"human FcγRIII (CD16a)": {"biological_target": "human FcγRIII (CD16a) (Homo sapiens, UniProt P08637)", "sequence (P08637 17-254)": "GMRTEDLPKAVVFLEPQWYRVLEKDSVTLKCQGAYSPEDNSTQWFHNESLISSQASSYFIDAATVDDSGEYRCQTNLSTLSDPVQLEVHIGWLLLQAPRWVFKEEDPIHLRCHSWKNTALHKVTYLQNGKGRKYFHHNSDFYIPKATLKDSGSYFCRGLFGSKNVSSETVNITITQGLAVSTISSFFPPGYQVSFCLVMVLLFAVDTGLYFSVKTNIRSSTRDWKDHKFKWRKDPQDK", "test": "FcγRIII (CD16a) SPR (Method A)", "format": "binding", "method": "SPR experiments were performed to determine ka (M^−1s^−1), kd (s^−1), KD (nM) values (where measurable) of various bicyclic peptides to immobilized human FcγRIII proteins.\nFor analysis of peptide binding, a Biacore 3000 or T200 instrument was used with a CM5 chip (GE Healthcare). Streptavidin was immobilized on the chip using standard amine-coupling chemistry at 25° C. with HBS-N (10 mM HEPES, 0.15 M NaCl, pH 7.4) as the running buffer. Briefly, the carboxymethyl dextran surface was activated with a 7 min injection of a 1:1 ratio of 0.4 M 1-ethyl-3-(3-dimethylaminopropyl) carbodiimide hydrochloride (EDC)/0.1 M N-hydroxy succinimide (NHS) at a flow rate of 10 μl/min. For capture of streptavidin, the protein was diluted to 0.2 mg/ml in 10 mM sodium acetate (pH 4.5) and captured by injecting 120 μl of onto the activated chip surface. Residual activated groups were blocked with a 7 min injection of 1 M ethanolamine (pH 8.5) and biotinylated FcγRIII captured to a level of 400-1,400 RU. Buffer was changed to PBS/0.05% Tween 20 and a dilution series of the peptides was prepared in this buffer with a final DMSO concentration of 0.5%. […] The SPR analysis was run at 25° C. at a flow rate of 50 μl/min with 60 seconds association and dissociation between 60 and 200 seconds. Data were corrected for DMSO excluded volume effects. […]"}, "human CD16a V176 variant": {"test_system": "human CD16a V176 variant", "test": "IgG competition assay (AlphaScreen), V variant", "format": "binding", "settings": "N-terminally biotinylated CD16a V176 10 nM, mouse IgG2a acceptor beads"}, "[1]": {"test_system": "CD56+ (NK cells) from human PBMCs", "test": "Flow cytometry binding to PBMCs, CD56+ (NK cell) population", "format": "cell-based", "settings": "FIG. 2A", "method": "(§1) The affinity of NKp46 dimeric bicyclic peptides conjugated to Alexa Fluor® 488 to primary healthy peripheral blood mononuclear cells (PBMCs) was evaluated using a flow cytometry assay.\n(§2) On the day of the experiment, medium was prepared by supplementing RPMI-1640 (Gibco™ 11875-093; with L-glutamine) with 10% heat-inactivated fetal bovine serum (FBS; Corning® 35-011-CV), 10 mM HEPES (Gibco™ 15-630-080), and 1% Penicillin Streptomycin (Corning™ 30-002-Cl), herein referred to as working medium. Previously isolated human peripheral blood mononuclear cells (PBMCs), from whole blood, were quick thawed in a water bath and washed once at 500 rpm for 5 minutes in 10 mL of prewarmed working medium. […]\n(§3) Preparation of samples for flow cytometry: Zombie Aqua™ Fixable Viability Dye (BioLegend® 423102) was prepared as a 1:1000 dilution in PBS and 100 μL of viability dye was added to each well and incubated in the dark at 4° C. for 30 minutes. […] Cells were resuspended in 200 μL of stain buffer and kept at 4° C. in the dark until read by BD FACSCelesta™ flow cytometer.\n(§4) Flow cytometry results were analyzed in FlowJo™ software with a gating strategy to evaluate the lymphocyte population then exclude debris, gate on single and live cells only, and determining the geometric mean of the Alexa Fluor® 488 in the CD3+ and CD3−/CD56+ populations. […]"}, "[2]": {"test_system": "CD56- CD3+ (T-cell population) from human PBMCs", "test": "Flow cytometry binding to PBMCs, CD56-/CD3+ (T-cell) population", "format": "cell-based", "settings": "FIG. 2B", "method": "as §1, §2, §3, §4"}},
  "data": [
    {"compound": "C#CCCC(=O)NCCCC[C@H](NC(=O)[C@H](C)NC(=O)[C@@H]1CSCc2nc3nc(n2)CSC[C@H](NC(=O)[C@@H]2CCCN2C(=O)CNC(=O)[C@H](CC(C)C)NC(=O)[C@H](CCC(=O)O)NC(=O)[C@H](CCC(=O)O)NC(=O)[C@H](CC(C)C)NC(=O)CNC(=O)[C@H](C(C)C)NC(=O)[C@@H](NC(=O)[C@H](C)N)CSC3)C(=O)N[C@@H](CO)C(=O)N[C@@H](CC(=O)O)C(=O)N[C@@H](CC(C)C)C(=O)N1)C(N)=O", "note": "[BCY13886, A-(SEQ ID NO: 62)-A-[K(PYA)]]", "values": [
      {"measurement": "Kd", "setting": "human FcγRIII (CD16a)", "result": 2200, "unit": "nM"},
      {"measurement": "IC50", "setting": "human CD16a V176 variant", "result": 3190, "unit": "nM"}
    ]},
    {"compound": "BCY15663: AF488 NKp46 homodimer of BCY15452, C-term D-Lys(PYA), linker N-(amine-PEG2)-N-bis(PEG3-azide) (ACYLPDYLCGDEYCAK; not fully specified; D-residues)", "values": [
      {"measurement": "binding to CD56+ (NK cell) population of PBMCs (in words)", "setting": "[1]", "result": "dose-dependent binding"},
      {"measurement": "binding to CD56-/CD3+ (T-cell) population of PBMCs (in words)", "setting": "[2]", "result": "binding to NK cells only"}
    ]}
  ]
}
